# US8466203B2, “Method of stabilizing human eye tissue by reaction with nitrite and related agents such as nitro compounds” (priority 2006, dated 2013)
# Assays:
# [1] = tested on: porcine sclera; experiment: Thermal shrinkage temperature analysis of porcine scleral strips; settings: for shift in Ts (in words): neutral pH, up to 100 mM
# Source text: (§1) Thermal shrinkage temperature or denaturation temperature (Ts) is a technique that has been used for decades in studying collagen cross-linking. As collagen fibers are progressively heated, a threshold temperature is reached at which point disruption of hydrogen bonding in the collagen molecule triple helix occurs, resulting in unwinding of the triple helices. The denaturation of tertiary protein structure results in a rapid shrinkage of the tissue of up to 80%. This phenomenon can be expressed in various ways including temperature of onset of tissue shrinkage, temperature at maximal tissue shrinkage, and temperature at 50% of maximal tissue shrinkage, for example. In addition, differential scanning calorimetry (DSC) is related to thermal shrinkage temperature analysis and is widely used to evaluate biomaterial cross-linking. Thermal shrinkage temperature is essentially a simplified version of DSC and can be used effectively to screen the cross-linking efficacy of compounds. For the purposes of this study, the onset of shrinkage is considered the Ts and the temperature at which 50% of maximal shrinkage has occurred is T50. Graphs depicting the relationship between degree of shrinkage and temperature indicate differences in degree of cross-linking between groups. Thus, stabilization of collagen fiber structures through non-enzymatic cross-linking increases Ts and T50.
# (§2) This system can perform multiple Ts assays in succession, allowing rapid screening of a number of potential cross-linking agents and conditions. […] Inlet and outlet fittings allow for constant circulation of heated water which is modulated by a digitally controlled water bath equipped with a water pump. The entire box is placed on a digital photo scanner connected to a Windows based computer. Beginning at 50° C. the temperature is raised at a rate of 1° C./min and serial scans are taken at every degree increase in temperature up to 80° C. […] As the tissue shrinks, the images are captured by the scanner. The image files are later analyzed for 2-dimensional area using NIH Image J software and % shrinkage calculations are made using Microsoft Excel for graphing purposes. This method obviates the need for removal of tissue pieces from the water bath with manual micrometer measurements as described by the UVR group (Spoerl, E., et al., 2004).
# Using this simple, reproducible assay enables the screening of a number of compounds for cross-linking efficacy. This is first performed using porcine eyes because of their low cost. Follow up studies can be performed using human eyes. Porcine eyes are obtained within 6 hrs of sacrifice (Hatfield Meat Packing, Inc., Hatfield Pa.). Eyes showing clear corneas and intact epithelia are chosen for study. […] Each strip is then cross-linked using a nitro agent. […] Opthalmol. 1999; 117:166-169) for 24-96 hrs. Following incubation, the samples are evaluated for degree of cross-linking using the Ts assay as described above.
# From the data, Ts curves are generated for each compound and condition studied. Each data point is the average of 3 independent samples.
# [2] = tested on: porcine cornea; experiment: Thermal shrinkage temperature analysis of porcine corneal strips
# Source text: as §1, §2
# Using this simple, reproducible assay enables the screening of a number of compounds for cross-linking efficacy. This is first performed using porcine eyes because of their low cost. Follow up studies can be performed using human eyes. Porcine eyes are obtained within 6 hrs of sacrifice (Hatfield Meat Packing, Inc., Hatfield Pa.). Eyes showing clear corneas and intact epithelia are chosen for study. […] Each strip is then cross-linked using a nitro agent. The incubation solution is 20% Dextran (T500) [to prevent tissue swelling] in 0.2 M NaH2PO4/Na2HPO4 (pH 7.4) with various concentrations of nitro agent (i.e. 1, 10, and 100 mM). […] The samples are then placed in 2 mL microcentrifuge tubes with 1 mL of incubation solution and reacted in a 34° C. water bath (simulating corneal temperature—Girardin, F., et al., “Relationship between corneal temperature and finger temperature,” Arch. Opthalmol. 1999; 117:166-169) for 24-96 hrs. Following incubation, the samples are evaluated for degree of cross-linking using the Ts assay as described above.
# [3] = tested on: porcine cornea; experiment: Yellowing of cross-linked porcine cornea
# Procedure: (§3) These images were taken from tissues cross-linked with nitrite and the β-nitro alcohols 2-nitroethanol, 2-nitro-1-propanol, and […], for 48 hrs. […] Fresh porcine corneal strips and corneoscleral complexes were obtained within 6 hrs of sacrifice and incubated at 37° C. in buffered solutions (pH 7.4) containing 20% Dextran (T500) and either 100 mM NaNO2 or 100 mM of one each of the β-nitro alcohols. After 48 hrs, the following images were obtained. […] FIGS. 13 (B and D)
# As such, the effects on corneal light transmission induced by cross-linking with β-nitro alcohols was evaluated using a method adopted from Dillon et al 2004.
# [4] = tested on: porcine cornea; experiment: Gross stiffness of porcine corneal strips handled with a forceps; settings: 100 mM, pH 7.4, 37° C., 48 hrs
# Procedure: Fresh porcine corneal strips and corneoscleral complexes obtained within 6 hrs of sacrifice and incubated at 37° C. in buffered solutions (pH 7.4) containing 20% Dextran (T500) and either 100 mM NaNO2 or 100 mM of one each of the specified β-nitro alcohols
# as §3
# [5] = tested on: primary bovine corneal endothelial cells; settings: bovine, 48 h
# [6] = tested on: human fibroblasts; settings: Sung 1998; cited from earlier work
# [7] = 100 mM reagent, pH 7.4, 37° C., 96 hrs
# [8] = 1 mM reagent, pH 7.4, 37° C., 96 hrs
# [9] = 10 mM reagent, pH 7.4, 37° C., 96 hrs
# [10] = 100 mM, 24 hrs reaction, pH 7.4
smiles,measurement,setting,value
"NCCO [2-aminoethanol, reference compound]",T50 (temperature at 50% of maximal shrinkage),[1]; [7],67.9 °C
same,T50 Δ (change in 50% shrinkage temperature compared to control),[1]; [7],2.6 °C
same,Ti (temperature at 1% absolute shrinkage),[1]; [7],64.3 °C
same,shift in Ts (in words),[1],only a marginal shift in Ts
CCCC(CO)[N+](=O)[O-] (stereo not drawn) [2-nitro-1-pentanol],shifts in Ts (in words),[2],produce shifts in Ts
same,yellowing (tinting),[3],without producing yellowing
CC(CO)[N+](=O)[O-] (stereo not drawn) [2-nitro-1-propanol],T50 (temperature at 50% of maximal shrinkage),[1]; [8],66.0 °C
same,T50 Δ (change in 50% shrinkage temperature compared to control),[1]; [8],0.7 °C
same,Ti (temperature at 1% absolute shrinkage),[1]; [8],63.0 °C
same,T50 (temperature at 50% of maximal shrinkage),[1]; [9],67.5 °C
same,T50 Δ (change in 50% shrinkage temperature compared to control),[1]; [9],2.2 °C
same,Ti (temperature at 1% absolute shrinkage),[1]; [9],64.4 °C
same,T50 (temperature at 50% of maximal shrinkage),[1]; [7],72.7 °C
same,T50 Δ (change in 50% shrinkage temperature compared to control),[1]; [7],7.4 °C
same,Ti (temperature at 1% absolute shrinkage),[1]; [7],69.5 °C
same,shifts in Ts (in words),[2],produce shifts in Ts
same,stiffness change when handled with a forceps,[4],intermediate effect
same,yellowing (tinting),[3],without producing yellowing
same,highest tolerated level,[5],0.75 mM
"CC[N+](=O)[O-] [2-nitroethane, reference compound]",T50 (temperature at 50% of maximal shrinkage),[1]; [9],65.4 °C
same,T50 Δ (change in 50% shrinkage temperature compared to control),[1]; [9],0.1 °C
same,Ti (temperature at 1% absolute shrinkage),[1]; [9],62.5 °C
same,T50 (temperature at 50% of maximal shrinkage),[1]; [7],65.3 °C
same,T50 Δ (change in 50% shrinkage temperature compared to control),[1]; [7],0 °C
same,Ti (temperature at 1% absolute shrinkage),[1]; [7],62.5 °C
same,shift in Ts (in words),[1],did not shift the Ts to any extent
"O=[N+]([O-])c1ccccc1O [2-nitrophenol, reference compound]",T50 (temperature at 50% of maximal shrinkage),[1]; [8],65.2 °C
same,T50 Δ (change in 50% shrinkage temperature compared to control),[1]; [8],−0.1 °C
same,Ti (temperature at 1% absolute shrinkage),[1]; [8],62.2 °C
same,T50 (temperature at 50% of maximal shrinkage),[1]; [9],65.6 °C
same,T50 Δ (change in 50% shrinkage temperature compared to control),[1]; [9],0.3 °C
same,Ti (temperature at 1% absolute shrinkage),[1]; [9],62.3 °C
same,T50 (temperature at 50% of maximal shrinkage),[1]; [7],66.0 °C
same,T50 Δ (change in 50% shrinkage temperature compared to control),[1]; [7],0.7 °C
same,Ti (temperature at 1% absolute shrinkage),[1]; [7],62.9 °C
same,shift in Ts (in words),[1],very little shift in Ts
CCC(C(C)O)[N+](=O)[O-] (stereo not drawn) [3-nitro-2-pentanol],T50 (temperature at 50% of maximal shrinkage),[1]; [8],66.2 °C
same,T50 Δ (change in 50% shrinkage temperature compared to control),[1]; [8],0.9 °C
same,Ti (temperature at 1% absolute shrinkage),[1]; [8],62.5 °C
same,T50 (temperature at 50% of maximal shrinkage),[1]; [9],67.7 °C
same,T50 Δ (change in 50% shrinkage temperature compared to control),[1]; [9],2.4 °C
same,Ti (temperature at 1% absolute shrinkage),[1]; [9],65.3 °C
same,T50 (temperature at 50% of maximal shrinkage),[1]; [7],70.7 °C
same,T50 Δ (change in 50% shrinkage temperature compared to control),[1]; [7],5.4 °C
same,Ti (temperature at 1% absolute shrinkage),[1]; [7],68.3 °C
same,stiffness change when handled with a forceps,[4],dramatic stiffness change
same,highest tolerated level,[5],2 mM
"NCCN(CCN)/[N+]([O-])=N/O [DETA/NONO, diethylenetriaamine NONOate, reference compound]",T50 (temperature at 50% of maximal shrinkage),[1]; [7],65.5 °C
same,T50 Δ (change in 50% shrinkage temperature compared to control),[1]; [7],0.2 °C
same,shift in Ts (in words),[1],Neither compound was able to shift Ts parameters
"C[S+](C)[O-] [DMSO, reference compound]",T50,"[1]; 1% reagent, pH 7.4, 96 hrs",65.0 °C
same,T50 Δ,"[1]; 1% reagent, pH 7.4, 96 hrs",−0.3 °C
"NCCCN(CCCN)/[N+]([O-])=N/O [DPTA/NONO, dipropylenetriamine NONOate, reference compound]",T50,"[1]; 10 mM, 24 hrs reaction, pH 7.4",66.4 °C
same,T50 Δ,"[1]; 10 mM, 24 hrs reaction, pH 7.4",1.1 °C
same,T50,[1]; [10],66.2 °C
same,T50 Δ,[1]; [10],0.9 °C
same,shift in Ts (in words),[1],Neither compound was able to shift Ts parameters
"CCO [Ethanol, reference compound]",T50 (temperature at 50% of maximal shrinkage),[1]; [7],65.2 °C
same,T50 Δ (change in 50% shrinkage temperature compared to control),[1]; [7],−0.1 °C
"C=O [Formaldehyde, reference compound]",T50 (temperature at 50% of maximal shrinkage),[1]; pH 7.4,67.7 °C
same,T50 Δ (change in 50% shrinkage temperature compared to control),[1]; pH 7.4,2.4 °C
"O=CCCCC=O [Glutaraldehyde, reference compound]",T50 (temperature at 50% of maximal shrinkage),[1]; [8],68.9 °C
same,T50 Δ (change in 50% shrinkage temperature compared to control),[1]; [8],3.6 °C
same,potency as a cross-linking agent relative to 2-nitroethanol,[1]; at moderate levels of T50 shift (~4° C.),approximately 10 ×
COC(=O)C1=CO[C@@H](O)[C@@H]2C(CO)=CC[C@H]12 [genipin],tolerable level relative to epoxy,[6],more than 20 ×
same,tolerable level relative to glutaraldehyde,[6],more than 100 ×
